Each block holds one molecule with its values, some of them ahead of it.
Tests used:
Orai1/STIM1 = molecular target: T1, Orai1/STIM1 (Homo sapiens, UniProt Q96D31); assay: Fluorescence-based assay of store-operated calcium entry in Orai1/STIM1 stable cells; type: cell-based; set-up: key to Orai1/STIM1 (IC50, μmol): A < 0.6 μmol; 0.6 μmol ≦ B ≦ 1.2 μmol; C > 1.2 μmol; — = no fit; conditions: HEK-293 cells stably expressing human STIM1 and Orai1, 50% inhibition of Peak-Basal fluorescence signal; for IC50: read-out: Orai1/STIM1 (IC50, μmol)
T1 construct: expressed in transfected cells
T1 sequence (Q96D31 whole entry): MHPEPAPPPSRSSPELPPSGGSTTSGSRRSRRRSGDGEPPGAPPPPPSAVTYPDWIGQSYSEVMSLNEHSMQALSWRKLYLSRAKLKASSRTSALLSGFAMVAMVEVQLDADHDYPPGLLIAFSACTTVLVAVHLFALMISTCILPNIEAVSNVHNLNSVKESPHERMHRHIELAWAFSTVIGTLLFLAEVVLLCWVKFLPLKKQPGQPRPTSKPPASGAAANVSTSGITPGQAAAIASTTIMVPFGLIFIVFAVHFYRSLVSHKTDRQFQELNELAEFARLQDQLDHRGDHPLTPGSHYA
Method: A. Fluorescence-Based Assay of Store-Operated Calcium Entry in Orai1/STIM1 Stable Cells.
Cells stably expressing recombinant human STIM1 and Orai1 are generated by transfecting a human Orai1 expression plasmid (pcDNA3.1-Orai1-cmyc) into HEK-293 cells stably overexpressing human STIM1 (Roos et al. 2005 JCB 169(3): 435-445). Colonies of cells stably expressing both STIM1 and Orai1 proteins are selected and then subcloned by limiting dilution. Cells were cultured at 37° C./6% CO2 in complete medium with 10% FBS and appropriate selection markers.
The day prior to performing the assay Orai1/STIM1 stable cells are plated in 50 μL of complete medium at 90-95% confluence in a 384 well plate. Cells are grown at 37° C./6% CO2 overnight. On the day of the assay, 1.5 μM fluo-4-AM (Invitrogen) in complete medium is added to the cells, which are then incubated for 1 hour at RT. Cells are washed once in Ca^2+-free HBSS (Hank's buffered saline solution) and 35 μl of Ca^2+-free HBSS is added to each well. Test compounds are added to wells in a 10 μL Ca^2+-free HBSS solution, prepared at 4.5× the desired final concentration, and incubated for 30 minutes at RT. The initial baseline fluorescence signal is then measured with a FLIPR^384 (Molecular Devices) plate reader. Calcium entry is initiated by adding 5 μl of 10× CaCl2 (10 mM) in HBSS, and changes in cellular fluorescence are measured with the FLIPR^384 plate reader. In each well, the magnitude of the fluorescence signal as a result of calcium entry into the cell is determined by calculating the difference between the peak fluorescence signal measured after calcium addition and the initial baseline fluorescence signal (designated Peak-Basal). IC50 values are typically calculated as the concentration that inhibited 50% of the Peak-Basal signal.

RBL-2H3 cells = assay: Fluorescence-based assay of store-operated calcium entry in RBL-2H3 cells; type: cell-based, rat; conditions: Rattus norvegicus, RBL-2H3; thapsigargin; 50% inhibition of Upslope; read-out: RBL-2H3 (IC50, μmol)
Method: B. Fluorescence-Based Assay of Store-Operated Calcium Entry in RBL-2H3 Cells.
RBL-2H3 cells are obtained from ATCC and maintained in complete medium with 10% FBS at 37° C./6% CO2.
The day prior to performing the assay, RBL-2H3 cells are plated in 50 μL of complete medium in a 384 well plate. Cells are grown at 37° C./6% CO2 overnight and grow to 50-60% confluence by the next day. On the assay day, 1.5 μM Fluo-4-AM dye (Invitrogen) in complete medium is added and incubated for 1 hour at RT. Cells are washed twice in Ca^2+-free HBSS buffer and 35 μL Ca^2+-free HBSS buffer is added to each well. 10 μL of a test compound prepared in a Ca^2+-free HBSS solution at 4.5× of the desired concentration is added to a well and incubated for 5 minutes at RT. 10 μL of thapsigargin prepared in a Ca^2+-free HBSS solution at 5.5× of the desired concentration (5.5 uM) is added to each well and incubated for an additional 25 minutes. The initial baseline fluorescence signal is measured with a FLIPR^384 (Molecular Devices) plate reader. 5 μL of 12× calcium in HBSS (12 mM) is added and changes in cellular fluorescence are measured with the FLIPR^384 plate reader. In each well, the change in the fluorescent signal as a function of time due to calcium entry into the cell is determined by calculating the difference between the fluorescent signal measured 7 seconds after calcium addition and the initial baseline fluorescence signal at time zero (t=0). This parameter is designated Upslope. The IC50 value is calculated as the concentration at which 50% of the Upslope is inhibited.

IC50 (Orai1/STIM1): < 600 nM
IC50 (RBL-2H3 cells): < 600 nM
Structure (SMILES): CCc1nn(-c2nccs2)cc1-c1ccc(NC(=O)c2c(F)cccc2F)cc1F [Example 31, N-(4-(3-ethyl-1-(thiazol-2-yl)-1H-pyrazol-4-yl)-3-fluorophenyl)-2,6-difluorobenzamide]

IC50 (Orai1/STIM1): < 600 nM
IC50 (RBL-2H3 cells): < 600 nM
Structure (SMILES): CCc1nn(-c2nccs2)cc1-c1ccc(NC(=O)c2c(F)cccc2F)nc1 [Example 35, N-(5-(3-ethyl-1-(thiazol-2-yl)-1H-pyrazol-4-yl)pyridin-2-yl)-2,6-difluorobenzamide]

IC50 (Orai1/STIM1): > 1200 nM
IC50 (RBL-2H3 cells): < 600 nM
Structure (SMILES): O=C(Nc1ccc(-c2cn(-c3nccs3)nc2C2CC2)c(F)c1)c1c(F)cccc1F [Example 41, N-(4-(3-cyclopropyl-1-(thiazol-2-yl)-1H-pyrazol-4-yl)-3-fluorophenyl)-2,6-difluorobenzamide]

IC50 (Orai1/STIM1): 600 to 1200 nM
IC50 (RBL-2H3 cells): < 600 nM
Structure (SMILES): O=C(Nc1ccc(-c2cn(-c3nccs3)nc2C2CC2)c(F)c1)c1c(F)ccc(F)c1F [Example 42, N-(4-(3-cyclopropyl-1-(thiazol-2-yl)-1H-pyrazol-4-yl)-3-fluorophenyl)-2,3,6-trifluorobenzamide]

IC50 (Orai1/STIM1): > 1200 nM
IC50 (RBL-2H3 cells): < 600 nM
Structure (SMILES): O=C(Nc1ccc(-c2cn(-c3nccs3)nc2C2CC2)c(F)c1)c1c(F)cc(F)cc1F [Example 43, N-(4-(3-cyclopropyl-1-(thiazol-2-yl)-1H-pyrazol-4-yl)-3-fluorophenyl)-2,4,6-trifluorobenzamide]

IC50 (Orai1/STIM1): 600 to 1200 nM
IC50 (RBL-2H3 cells): < 600 nM
Structure (SMILES): O=C(Nc1ccc(-c2cn(-c3nccs3)nc2C2CC2)cn1)c1c(F)ccc(F)c1F [Example 45, N-(5-(3-cyclopropyl-1-(thiazol-2-yl)-1H-pyrazol-4-yl)pyridin-2-yl)-2,3,6-trifluorobenzamide]

IC50 (Orai1/STIM1): 600 to 1200 nM
IC50 (RBL-2H3 cells): < 600 nM
Structure (SMILES): O=C(Nc1ccc(-c2cn(-c3nccs3)nc2C2CC2)cn1)c1c(F)cc(F)cc1F [Example 46, N-(5-(3-cyclopropyl-1-(thiazol-2-yl)-1H-pyrazol-4-yl)pyridin-2-yl)-2,4,6-trifluorobenzamide]

IC50 (Orai1/STIM1): > 1200 nM
IC50 (RBL-2H3 cells): < 600 nM
Structure (SMILES): O=C(Nc1cnc(-c2cn(-c3nccs3)nc2C2CC2)cn1)c1c(F)cccc1F [Example 47, N-(5-(3-cyclopropyl-1-(thiazol-2-yl)-1H-pyrazol-4-yl)pyrazin-2-yl)-2,6-difluorobenzamide]

IC50 (Orai1/STIM1): > 1200 nM
IC50 (RBL-2H3 cells): < 600 nM
Structure (SMILES): O=C(Nc1cnc(-c2cn(-c3nccs3)nc2C2CC2)cn1)c1c(F)ccc(F)c1F [Example 48, N-(5-(3-cyclopropyl-1-(thiazol-2-yl)-1H-pyrazol-4-yl)pyrazin-2-yl)-2,3,6-trifluorobenzamide]

IC50 (Orai1/STIM1): > 1200 nM
IC50 (RBL-2H3 cells): < 600 nM
Structure (SMILES): O=C(Nc1ccc(-c2cn(-c3nccs3)nc2C(F)(F)F)c(F)c1)c1c(F)cccc1F [Example 51, 2,6-difluoro-N-(3-fluoro-4-(1-(thiazol-2-yl)-3-(trifluoromethyl)-1H-pyrazol-4-yl)phenyl)benzamide]

IC50 (Orai1/STIM1): < 600 nM
IC50 (RBL-2H3 cells): > 1200 nM
Structure (SMILES): Cc1nn(-c2cc(F)ccc2F)cc1-c1ccc(NC(=O)c2c(F)ccc(F)c2F)nc1 [Example 56, N-(5-(1-(2,5-difluorophenyl)-3-methyl-1H-pyrazol-4-yl)pyridin-2-yl)-2,3,6-trifluorobenzamide]

Second part, the molecule before the results:

Structure (SMILES): Cc1ccc(F)c(C(=O)Nc2cnc(-c3cn(-c4nccs4)nc3C)cn2)c1F [Example 30, 2,6-difluoro-3-methyl-N-(5-(3-methyl-1-(thiazol-2-yl)-1H-pyrazol-4-yl)pyrazin-2-yl)benzamide]
IC50 (Orai1/STIM1): 600 to 1200 nM
IC50 (RBL-2H3 cells): < 600 nM

Structure (SMILES): CCc1nn(-c2nccs2)cc1-c1ccc(NC(=O)c2c(F)ccc(F)c2F)cc1F [Example 32, N-(4-(3-ethyl-1-(thiazol-2-yl)-1H-pyrazol-4-yl)-3-fluorophenyl)-2,3,6-trifluorobenzamide]
IC50 (Orai1/STIM1): > 1200 nM
IC50 (RBL-2H3 cells): < 600 nM

Structure (SMILES): CCc1nn(-c2nccs2)cc1-c1ccc(NC(=O)c2c(F)cc(F)cc2F)cc1F [Example 33, N-(4-(3-ethyl-1-(thiazol-2-yl)-1H-pyrazol-4-yl)-3-fluorophenyl)-2,4,6-trifluorobenzamide]
IC50 (Orai1/STIM1): > 1200 nM
IC50 (RBL-2H3 cells): < 600 nM

Structure (SMILES): CCc1nn(-c2nccs2)cc1-c1ccc(NC(=O)c2cc(F)nc(F)c2)cc1F [Example 34, N-(4-(3-ethyl-1-(thiazol-2-yl)-1H-pyrazol-4-yl)-3-fluorophenyl)-2,6-difluoroisonicotinamide]
IC50 (Orai1/STIM1): > 1200 nM
IC50 (RBL-2H3 cells): < 600 nM

Structure (SMILES): CCc1nn(-c2nccs2)cc1-c1ccc(NC(=O)c2c(F)ccc(F)c2F)nc1 [Example 36, N-(5-(3-ethyl-1-(thiazol-2-yl)-1H-pyrazol-4-yl)pyridin-2-yl)-2,3,6-trifluorobenzamide]
IC50 (Orai1/STIM1): < 600 nM
IC50 (RBL-2H3 cells): < 600 nM

Structure (SMILES): CCc1nn(-c2nccs2)cc1-c1ccc(NC(=O)c2c(F)cc(F)cc2F)nc1 [Example 37, N-(5-(3-ethyl-1-(thiazol-2-yl)-1H-pyrazol-4-yl)pyridin-2-yl)-2,4,6-trifluorobenzamide]
IC50 (Orai1/STIM1): < 600 nM
IC50 (RBL-2H3 cells): < 600 nM

Structure (SMILES): CCc1nn(-c2nccs2)cc1-c1cnc(NC(=O)c2c(F)cccc2F)cn1 [Example 38, N-(5-(3-ethyl-1-(thiazol-2-yl)-1H-pyrazol-4-yl)pyrazin-2-yl)-2,6-difluorobenzamide]
IC50 (Orai1/STIM1): < 600 nM
IC50 (RBL-2H3 cells): < 600 nM

Structure (SMILES): O=C(Nc1ccc(-c2cn(-c3nccs3)nc2C2CC2)cn1)c1c(F)cccc1F [Example 44, N-(5-(3-cyclopropyl-1-(thiazol-2-yl)-1H-pyrazol-4-yl)pyridin-2-yl)-2,6-difluorobenzamide]
IC50 (Orai1/STIM1): < 600 nM
IC50 (RBL-2H3 cells): < 600 nM

Structure (SMILES): O=C(Nc1cnc(-c2cn(-c3nccs3)nc2C2CC2)cn1)c1c(F)cc(F)cc1F [Example 49, N-(5-(3-cyclopropyl-1-(thiazol-2-yl)-1H-pyrazol-4-yl)pyrazin-2-yl)-2,4,6-trifluorobenzamide]
IC50 (Orai1/STIM1): 600 to 1200 nM
IC50 (RBL-2H3 cells): < 600 nM

Structure (SMILES): O=C(Nc1cnc(-c2cn(-c3nccs3)nc2C2CC2)cn1)c1ccccc1F [Example 50, N-(5-(3-cyclopropyl-1-(thiazol-2-yl)-1H-pyrazol-4-yl)pyrazin-2-yl)-2-fluorobenzamide]
IC50 (Orai1/STIM1): < 600 nM
IC50 (RBL-2H3 cells): < 600 nM

Structure (SMILES): O=C(Nc1ccc(-c2cn(-c3nccs3)nc2C(F)(F)F)cn1)c1c(F)cccc1F [Example 52, 2,6-difluoro-N-(5-(1-(thiazol-2-yl)-3-(trifluoromethyl)-1H-pyrazol-4-yl)pyridin-2-yl)benzamide]
IC50 (Orai1/STIM1): < 600 nM
IC50 (RBL-2H3 cells): < 600 nM

Structure (SMILES): O=C(Nc1ccc(-c2cn(-c3nccs3)nc2C(F)(F)F)cn1)c1c(F)ccc(F)c1F [Example 53, 2,3,6-trifluoro-N-(5-(1-(thiazol-2-yl)-3-(trifluoromethyl)-1H-pyrazol-4-yl)pyridin-2-yl)benzamide]
IC50 (Orai1/STIM1): 600 to 1200 nM
IC50 (RBL-2H3 cells): < 600 nM

Structure (SMILES): CC(C)(C)c1nn(-c2nccs2)cc1-c1ccc(NC(=O)c2c(F)cccc2F)nc1 [Example 54, N-(5-(3-tert-butyl-1-(thiazol-2-yl)-1H-pyrazol-4-yl)pyridin-2-yl)-2,6-difluorobenzamide]
Orai1/STIM1 (IC50, μmol) (Orai1/STIM1): —
IC50 (RBL-2H3 cells): < 600 nM

Structure (SMILES): Cc1nn(-c2cc(F)ccc2F)cc1-c1ccc(NC(=O)c2c(F)cccc2F)nc1 [Example 55, N-(5-(1-(2,5-difluorophenyl)-3-methyl-1H-pyrazol-4-yl)pyridin-2-yl)-2,6-difluorobenzamide]
IC50 (Orai1/STIM1): < 600 nM
IC50 (RBL-2H3 cells): < 600 nM

Structure (SMILES): Cc1nn(-c2ccccc2F)cc1-c1ccc(NC(=O)c2c(F)cccc2F)nc1 [Example 57, 2,6-difluoro-N-(5-(1-(2-fluorophenyl)-3-methyl-1H-pyrazol-4-yl)pyridin-2-yl)benzamide]
IC50 (Orai1/STIM1): < 600 nM
IC50 (RBL-2H3 cells): < 600 nM
